Columns and labels:
MER kinase = MER kinase (Homo sapiens (Human), UniProt Q12866); assay: Assay of small molecular compounds for inhibiting the activity of MER kinase (LANCE TR-FRET); assay type: biochemical
Procedure, shortened: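 LANCE TR-FRET readout of ULight-poly GT phosphorylation by MER kinase; compound final range 0.042-2500 nM, 3-fold steps, 5 min enzyme preincubation. Reaction 60 min at room temperature in the dark with substrate/ATP (4× at 200 nM/20 μM), 1% DMSO, then stopped and developed 60 min; IC50 by curve fit.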

c-MET kinase = c-MET kinase (Homo sapiens (Human), UniProt P08581); assay: Assay of small molecular compounds for inhibiting the activity of c-MET kinase (LANCE TR-FRET); assay type: biochemical; conditions: read-out: CMET IC50
Procedure, shortened: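 Eleven final concentrations from 2500 nM down to 0.042 nM, in 4% DMSO, were tested against human c-MET (2× stock 2 nM), with compound and enzyme premixed for 5 min. The phosphorylation reaction used 4× stock of 400 nM ULight-JAK-1 peptide and 40 μM ATP for 60 min at room temperature, then stop and detection steps. TR-FRET percent inhibition against positive and negative controls gave the IC50.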

c-MET kinase, sequence (P08581 25-1390): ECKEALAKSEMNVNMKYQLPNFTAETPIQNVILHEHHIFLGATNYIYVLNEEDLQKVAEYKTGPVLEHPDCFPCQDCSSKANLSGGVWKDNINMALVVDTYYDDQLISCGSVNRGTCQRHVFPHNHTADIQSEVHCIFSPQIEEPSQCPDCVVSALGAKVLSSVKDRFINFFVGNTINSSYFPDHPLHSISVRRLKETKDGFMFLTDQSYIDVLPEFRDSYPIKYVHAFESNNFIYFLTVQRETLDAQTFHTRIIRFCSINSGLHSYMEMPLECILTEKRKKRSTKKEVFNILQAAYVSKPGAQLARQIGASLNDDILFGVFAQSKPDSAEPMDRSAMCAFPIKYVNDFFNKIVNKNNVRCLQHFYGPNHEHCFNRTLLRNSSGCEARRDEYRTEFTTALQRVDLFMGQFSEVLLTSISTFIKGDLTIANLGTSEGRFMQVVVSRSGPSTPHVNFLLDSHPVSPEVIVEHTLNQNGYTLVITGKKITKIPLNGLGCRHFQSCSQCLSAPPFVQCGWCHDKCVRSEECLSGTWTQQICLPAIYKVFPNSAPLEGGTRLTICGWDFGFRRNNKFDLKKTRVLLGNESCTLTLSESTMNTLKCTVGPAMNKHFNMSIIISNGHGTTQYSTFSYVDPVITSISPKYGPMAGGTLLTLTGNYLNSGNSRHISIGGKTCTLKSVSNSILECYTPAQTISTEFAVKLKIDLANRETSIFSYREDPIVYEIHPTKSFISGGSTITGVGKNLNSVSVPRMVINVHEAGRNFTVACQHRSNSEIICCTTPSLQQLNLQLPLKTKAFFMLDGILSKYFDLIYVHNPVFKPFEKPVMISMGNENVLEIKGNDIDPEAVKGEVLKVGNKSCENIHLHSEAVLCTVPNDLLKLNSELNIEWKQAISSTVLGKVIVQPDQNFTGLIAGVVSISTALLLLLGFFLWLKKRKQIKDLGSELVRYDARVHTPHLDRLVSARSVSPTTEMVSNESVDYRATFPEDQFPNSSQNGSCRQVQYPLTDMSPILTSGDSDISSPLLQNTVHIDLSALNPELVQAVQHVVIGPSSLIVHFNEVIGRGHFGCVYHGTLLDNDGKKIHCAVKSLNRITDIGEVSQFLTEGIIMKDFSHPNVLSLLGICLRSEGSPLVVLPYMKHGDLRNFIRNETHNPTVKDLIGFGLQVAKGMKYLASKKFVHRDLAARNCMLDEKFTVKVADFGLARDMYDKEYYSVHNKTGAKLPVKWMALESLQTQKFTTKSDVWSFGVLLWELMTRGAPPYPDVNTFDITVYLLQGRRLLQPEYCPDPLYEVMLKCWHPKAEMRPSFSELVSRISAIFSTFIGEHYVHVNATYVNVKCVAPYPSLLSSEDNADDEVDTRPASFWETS
MER kinase, sequence (Q12866 21-999): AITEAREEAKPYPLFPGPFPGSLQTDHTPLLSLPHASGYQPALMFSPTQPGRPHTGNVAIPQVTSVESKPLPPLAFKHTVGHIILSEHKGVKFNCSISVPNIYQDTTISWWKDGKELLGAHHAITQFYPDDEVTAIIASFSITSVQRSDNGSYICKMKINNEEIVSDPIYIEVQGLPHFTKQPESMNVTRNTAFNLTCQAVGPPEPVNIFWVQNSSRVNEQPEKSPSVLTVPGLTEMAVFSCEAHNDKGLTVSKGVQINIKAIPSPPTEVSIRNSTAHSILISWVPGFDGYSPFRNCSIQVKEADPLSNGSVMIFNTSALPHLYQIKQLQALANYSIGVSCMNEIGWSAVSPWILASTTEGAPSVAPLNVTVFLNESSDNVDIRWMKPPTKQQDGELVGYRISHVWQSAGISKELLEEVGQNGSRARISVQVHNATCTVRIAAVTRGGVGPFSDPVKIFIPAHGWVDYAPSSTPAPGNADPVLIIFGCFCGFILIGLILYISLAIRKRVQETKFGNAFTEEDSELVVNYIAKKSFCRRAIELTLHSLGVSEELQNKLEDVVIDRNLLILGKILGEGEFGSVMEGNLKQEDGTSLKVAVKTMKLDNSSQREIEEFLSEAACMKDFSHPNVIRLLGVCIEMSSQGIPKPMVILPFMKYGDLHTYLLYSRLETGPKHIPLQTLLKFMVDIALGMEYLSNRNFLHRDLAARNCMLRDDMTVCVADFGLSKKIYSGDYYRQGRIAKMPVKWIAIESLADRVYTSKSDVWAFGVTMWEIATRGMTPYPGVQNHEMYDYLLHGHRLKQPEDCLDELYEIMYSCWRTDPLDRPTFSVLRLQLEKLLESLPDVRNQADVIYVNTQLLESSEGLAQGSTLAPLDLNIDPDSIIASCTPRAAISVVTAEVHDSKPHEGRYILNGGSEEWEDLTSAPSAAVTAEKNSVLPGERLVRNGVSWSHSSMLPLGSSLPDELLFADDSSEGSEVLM

Row | SMILES | IC50 (MER kinase) | IC50 (c-MET kinase)
1 | Cn1cc(C(=O)Nc2ccc(Oc3ccnc4cc(OCCCN5CCCCC5)c5c(c34)OCCO5)cc2Cl)c(=O)n(-c2ccc(F)cc2)c1=O [Example 137, N-(2-chloro-4-((5-((3-piperidin-1-yl)propoxy)-2,3-dihydro-[1,4]dioxino[2,3-f]quinolin-10-yl)oxy)phenyl)-3-(4-fluorophenyl)-1-methyl-2,4-dioxo-1,2,3,4-tetrahydropyrimidine-5-carboxamide] | ≤ 50 nM | ≤ 50 nM
2 | Cn1cc(C(=O)Nc2ccc(Oc3ccnc4ccc5c(c34)OCCO5)cc2F)c(=O)n(-c2ccc(F)cc2)c1=O [Example 162, N-(4-((2,3-dihydro-[1,4]dioxino[2,3-f]quinolin-10-yl)oxy)-2-fluorophenyl)-3-(4-fluorophenyl)-1-methyl-2,4-dioxo-1,2,3,4-tetrahydropyrimidine-5-carboxamide] | 50 to 500 nM | 500 to 5000 nM
3 | CCOc1cc2nccc(Oc3ccc(NC(=O)c4c(OCC)ccn(-c5ccc(F)cc5)c4=O)c(Cl)c3)c2c2c1OCCO2 [Example 130, N-(2-chloro-4-((5-ethoxy-2,3-dihydro-[1,4]dioxino[2,3-f]quinolin-10-yl)oxy)phenyl)-1-(4-fluorophenyl)-4-ethoxy-2-oxo-1,2-dihydropyridine-3-carboxamide] | ≤ 50 nM | ≤ 50 nM
4 | Cn1cc(C(=O)Nc2ccc(Oc3ccnc4cc(OCC(C)(C)O)c5c(c34)OCCO5)cc2Cl)c(=O)n(-c2ccc(F)cc2)c1=O [Example 141, N-(2-chloro-4-((5-(2-hydroxy-2-methylpropoxy)-2,3-dihydro-[1,4]dioxino[2,3-f]quinolin-10-yl)oxy)phenyl)-3-(4-fluorophenyl)-1-methyl-2,4-dioxo-1,2,3,4-tetrahydropyrimidine-5-carboxamide] | 50 to 500 nM | ≤ 50 nM
5 | CCOc1ccn(Cc2ccccc2)c(=O)c1C(=O)Nc1ccc(Oc2ccnc3cc(OC)c4c(c23)OCCO4)c(F)c1 [Example 117, N-(3-fluoro-4-((5-methoxy-2,3-dihydro-[1,4]dioxino[2,3-f]quinolin-10-yl)oxy)phenyl)-2-oxo-4-ethoxy-1-benzyl-1,2-dihydropyridin-3-carboxamide] | ≤ 50 nM | ≤ 50 nM
6 | COc1ccn(-c2ccc(F)cc2)c(=O)c1C(=O)Nc1ccc(Oc2ccnc3ccc4c(c23)OCCO4)cc1F [Example 172, N-(4-((2,3-dihydro-[1,4]dioxino[2,3-f]quinolin-10-yl)oxy)-2-fluorophenyl)-1-(4-fluorophenyl)-4-methoxy-2-oxo-1,2-dihydropyridine-3-carboxamide] | ≤ 50 nM | 50 to 500 nM
7 | CCOc1ccn(-c2ccc(F)cc2)c(=O)c1C(=O)Nc1ccc(Oc2ccnc3cc(OC)c4c(c23)OCCO4)cc1Cl [Example 126, N-(2-chloro-4-((5-methoxy-2,3-dihydro-[1,4]dioxino[2,3-f]quinolin-10-yl)oxy)phenyl)-1-(4-fluorophenyl)-4-ethoxy-2-oxo-1,2-dihydropyridine-3-carboxamide] | ≤ 50 nM | ≤ 50 nM
8 | CCOc1cc2nccc(Oc3ccc(NC(=O)c4cn(C)c(=O)n(-c5ccc(F)cc5)c4=O)c(Cl)c3)c2c2c1OCCO2 [Example 129, N-(2-chloro-4-((5-ethoxy-2,3-dihydro-[1,4]dioxino[2,3-f]quinolin-10-yl)oxy)phenyl)-3-(4-fluorophenyl)-1-methyl-2,4-dioxo-1,2,3,4-tetrahydropyrimidine-5-carboxamide] | ≤ 50 nM | ≤ 50 nM
9 | CCOc1ccn(-c2ccc(F)cc2)c(=O)c1C(=O)Nc1ccc(Oc2ccnc3cc(OCC(C)(C)O)c4c(c23)OCCO4)c(F)c1 [Example 120, N-(3-fluoro-4-((5-(2-hydroxy-2-methylpropoxy)-2,3-dihydro-[1,4]dioxino[2,3-f]quinolin-10-yl)oxy)phenyl)-4-ethoxy-1-(4-fluorophenyl)-2-oxo-1,2-dihydropyridine-3-carboxamide] | ≤ 50 nM | ≤ 50 nM
10 | CCOc1ccn(-c2ccc(F)cc2)c(=O)c1C(=O)Nc1ccc(Oc2ccnc3cc(OCCCN4CCCCC4)c4c(c23)OCCO4)cc1Cl [Example 138, N-(2-chloro-4-((5-((3-piperidin-1-yl)propoxy)-2,3-dihydro-[1,4]dioxino[2,3-f]quinolin-10-yl)oxy)phenyl)-1-(4-fluorophenyl)-4-ethoxy-2-oxo-1,2-dihydropyridine-3-carboxamide] | ≤ 50 nM | ≤ 50 nM
11 | CCn1cc(C(=O)Nc2ccc(Oc3ccnc4cc(OC)c5c(c34)OCCO5)cc2)c(=O)n(-c2ccc(F)cc2)c1=O [Example 146, N-(4-((5-methoxy-2,3-dihydro-[1,4]dioxino[2,3-f]quinolin-10-yl)oxy)phenyl)-3-(4-fluorophenyl)-1-ethyl-2,4-dioxo-1,2,3,4-tetrahydropyrimidine-5-carboxamide] |  | ≤ 50 nM

The next lines start with the values.

Row | IC50 (MER kinase) | IC50 (c-MET kinase) | SMILES
12 | ≤ 50 nM | ≤ 50 nM | CC(C)n1cc(C(=O)Nc2ccc(Oc3ccnc4cc(OCCCN5CCCCC5)c5c(c34)OCCO5)c(F)c2)c(=O)n(-c2ccc(F)cc2)c1=O [Example 40, N-(3-fluoro-4-((5-(3-(piperidin-1-yl)propoxy)-2,3-dihydro-[1,4]dioxino[2,3-f]quinolin-10-yl)oxy)phenyl)-3-(4-fluorophenyl)-1-isopropyl-2,4-dioxo-1,2,3,4-tetrahydropyrimidine-5-carboxamide]
13 |  | ≤ 50 nM | COc1cc2nccc(Oc3ccc(NC(=O)c4cn(C)c(=O)n(-c5ccc(F)cc5)c4=O)cc3)c2c2c1OCCO2 [Example 145, N-(4-((5-methoxy-2,3-dihydro-[1,4]dioxino[2,3-f]quinolin-10-yl)oxy)phenyl)-3-(4-fluorophenyl)-1-methyl-2,4-dioxo-1,2,3,4-tetrahydropyrimidine-5-carboxamide]
14 |  | ≤ 50 nM | COCCOc1cc2nccc(Oc3ccc(NC(=O)c4cn(C)c(=O)n(-c5ccc(F)cc5)c4=O)cc3)c2c2c1OCCO2 [Example 147, N-(4-((5-(2-methoxyethoxy)-2,3-dihydro-[1,4]dioxino[2,3-f]quinolin-10-yl)oxy)phenyl)-3-(4-fluorophenyl)-1-methyl-2,4-dioxo-1,2,3,4-tetrahydropyrimidine-5-carboxamide]
15 | ≤ 50 nM | ≤ 50 nM | CCn1cc(C(=O)Nc2ccc(Oc3ccnc4cc(OCCCN5CCOCC5)c5c(c34)OCCO5)c(F)c2)c(=O)n(-c2ccc(F)cc2)c1=O [Example 38, N-(3-fluoro-4-((5-(3-morpholinopropoxy)-2,3-dihydro-[1,4]dioxino[2,3-f]quinolin-10-yl)oxy)phenyl)-3-(4-fluorophenyl)-1-ethyl-2,4-dioxo-1,2,3,4-tetrahydropyrimidine-5-carboxamide]
16 | ≤ 50 nM | ≤ 50 nM | COCCN(C)CCCOc1cc2nccc(Oc3ccc(NC(=O)c4cn(C(C)C)c(=O)n(-c5ccc(F)cc5)c4=O)cc3F)c2c2c1OCCO2 [Example 95, N-(3-fluoro-4-((5-(3-((2-methoxyethyl)(methyl)amino)propoxy)-2,3-dihydro-[1,4]dioxino[2,3-f]quinolin-10-yl)oxy)phenyl)-3-(4-fluorophenyl)-1-isopropyl-2,4-dioxo-1,2,3,4-tetrahydropyrimidine-5-carboxamide]
17 |  | ≤ 50 nM | COCCOc1cc2nccc(Oc3ccc(NC(=O)c4cn(C)c(=O)n(-c5ccc(F)cc5)c4=O)c(F)c3)c2c2c1OCCO2 [Example 155, N-(2-fluoro-4-((5-(2-methoxyethoxy)-2,3-dihydro-[1,4]dioxino[2,3-f]quinolin-10-yl)oxy)phenyl)-3-(4-fluorophenyl)-1-methyl-2,4-dioxo-1,2,3,4-tetrahydropyrimidine-5-carboxamide]
18 |  | ≤ 50 nM | Cn1cc(C(=O)Nc2ccc(Oc3ccnc4cc(OCC(C)(C)O)c5c(c34)OCCO5)cc2)c(=O)n(-c2ccc(F)cc2)c1=O [Example 149, N-(4-((5-(2-hydroxy-2-methylpropoxy)-2,3-dihydro-[1,4]dioxino[2,3-f]quinolin-10-yl)oxy)phenyl)-3-(4-fluorophenyl)-1-methyl-2,4-dioxo-1,2,3,4-tetrahydropyrimidine-5-carboxamide]
19 |  | ≤ 50 nM | CCn1cc(C(=O)Nc2ccc(Oc3ccnc4cc(OCCOC)c5c(c34)OCCO5)cc2F)c(=O)n(-c2ccc(F)cc2)c1=O [Example 156, N-(2-fluoro-4-((5-(2-methoxyethoxy)-2,3-dihydro-[1,4]dioxino[2,3-f]quinolin-10-yl)oxy)phenyl)-3-(4-fluorophenyl)-1-ethyl-2,4-dioxo-1,2,3,4-tetrahydropyrimidine-5-carboxamide]
20 |  | ≤ 50 nM | CCn1cc(C(=O)Nc2ccc(Oc3ccnc4cc(OCC(C)(C)O)c5c(c34)OCCO5)cc2)c(=O)n(-c2ccc(F)cc2)c1=O [Example 150, N-(4-((5-(2-hydroxy-2-methylpropoxy)-2,3-dihydro-[1,4]dioxino[2,3-f]quinolin-10-yl)oxy)phenyl)-3-(4-fluorophenyl)-1-ethyl-2,4-dioxo-1,2,3,4-tetrahydropyrimidine-5-carboxamide]
21 |  | ≤ 50 nM | COc1cc2nccc(Oc3ccc(NC(=O)c4cn(C)c(=O)n(-c5ccc(F)cc5)c4=O)c(F)c3)c2c2c1OCCO2 [Example 153, N-(2-fluoro-4-((5-methoxy-2,3-dihydro-[1,4]dioxino[2,3-f]quinolin-10-yl)oxy)phenyl)-3-(4-fluorophenyl)-1-methyl-2,4-dioxo-1,2,3,4-tetrahydropyrimidine-5-carboxamide]
22 |  | ≤ 50 nM | CCn1cc(C(=O)Nc2ccc(Oc3ccnc4cc(OCCOC)c5c(c34)OCCO5)cc2)c(=O)n(-c2ccc(F)cc2)c1=O [Example 148, N-(4-((5-(2-methoxyethoxy)-2,3-dihydro-[1,4]dioxino[2,3-f]quinolin-10-yl)oxy)phenyl)-3-(4-fluorophenyl)-1-ethyl-2,4-dioxo-1,2,3,4-tetrahydropyrimidine-5-carboxamide]
